This note sets out measurements from patent publication US9199975B2, “Biaryl imidazole derivatives for regulating CYP17” (Asana Biosciences, LLC, priority 2011, dated 2015).

This test addresses T1, human CYP17 (Homo sapiens, UniProt P05093).
T1 sequence (P05093 1-508): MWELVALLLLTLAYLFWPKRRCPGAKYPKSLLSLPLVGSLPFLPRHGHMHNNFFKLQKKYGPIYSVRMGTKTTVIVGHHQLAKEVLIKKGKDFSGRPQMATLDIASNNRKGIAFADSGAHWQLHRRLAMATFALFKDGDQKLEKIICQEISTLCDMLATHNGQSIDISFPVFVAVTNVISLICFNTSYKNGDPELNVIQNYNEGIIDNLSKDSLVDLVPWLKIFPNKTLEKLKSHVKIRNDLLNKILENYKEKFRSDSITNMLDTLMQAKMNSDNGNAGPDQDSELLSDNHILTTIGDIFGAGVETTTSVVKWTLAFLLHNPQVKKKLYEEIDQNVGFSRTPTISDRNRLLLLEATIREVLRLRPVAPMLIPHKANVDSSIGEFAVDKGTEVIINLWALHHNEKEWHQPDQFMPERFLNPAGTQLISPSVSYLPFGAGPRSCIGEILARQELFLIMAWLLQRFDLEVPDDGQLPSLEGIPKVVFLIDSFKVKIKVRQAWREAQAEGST
The test can be described thus: CYP17 inhibition assay in yeast microsomes overexpressing human CYP17. Format: biochemical. To be noted: yeast microsomes expressing human CYP17, 3H3-17α-hydroxypregnenolone substrate, 60 minutes at 37° C. How it is done: CYP17 Inhibition Assay in Rat Testicular Microsomes (Rat CYP17) or Yeast Microsome Overexpressing Human CYP17
A. Materials • 1. NADPH (Sigma): A working stock was prepared by adding 25 μL of 6.5 mM NADPH in each tube. The final concentration of NADPH used in the assay was 325 μM. • 2. Potassium Phosphate Buffer: One molar (1M) solutions of K2HPO4 and KH2PO4 were prepared. Eight mL of the 1 M KH2PO4 and 1.98 mL of the 1 M K2HPO4 were combined and the pH was adjusted to 7.4. • 3. ^3H3-17α-hydroxypregnenolone (American Radiolabeled Chemicals, Inc., stock 1 μCi/μL): A 1:1 dilution of ^3H3-17α-hydroxypregnenolone in ethanol was prepared by combining 100 μL ^3H3-17α-hydroxypregnenolone+100 μL ethanol for one complete 96 well plate. For the reaction, 2 μL of the diluted ^3H3-17α-hydroxypregnenolone was added in each tube, i.e., 1 μCi/reaction. • 4. Microsome Isolation Buffer: The microsome isolation buffer was prepared by combining 250 mM Sucrose, 5 mM EDTA, 10 mM Tris HCl, 4 mM DTT, and adjusting to pH 7.4. • 5. TEG Buffer: The TEG buffer was prepared by combining 50 mM Tris HCl, 1 mM EDTA, and 20% Glycerol. • 6. Rat Testicular Microsomes: Rat testis tissue was collected and disrupted with 30 strokes of a glass homogenizer on ice with 250 μL of microsome isolation buffer, followed by centrifugation at 10,000 g for 10 minutes at 4° C. The supernatant was collected and centrifuged at 100,000 g for 45 minutes at 4° C. The pellet was dissolved in TEG Buffer and the protein was quantified. The homogenized microsome samples were then frozen at −80° C. • 7. Yeast Microsomes which overexpress the human CYP17 enzyme were obtained from Premas Biotech, India.
Potassium phosphate buffer (470 μL) was prepared as described above and was added to each well of a deep well plate. The test compound was diluted using a TECAN liquid handler and 5 μL of diluted compound was transferred to each well (96 deep well/1 mL). A solution (25 μL) of 6.5 mM NADPH was added (final concentration of 325 µM in the assay). ^3H3-17α-hydroxypregnenolone (2 μL of the working stock) was added to each tube. The plates were then pre-incubated for 15 minutes at 37° C. Following the pre-incubation, either 5 μL rat testicular microsomes (150-160 μg) or 5 μL of yeast microsomes expressing human CYP17 (1.7 pmol), was added. Incubation was at 37° C. for 60 minutes in the presence of oxygen. The plates were then placed in ice and chloroform (500 μL) was added, mixed well and incubated at 4° C. for 20 minutes. The plates were then centrifuged at 1000 rpm for 15 minutes at 4° C.
A portion (300 μL) of the aqueous solution was collected and mixed with a 5% aqueous suspension of activated charcoal (300 μL). The plates were then incubated at 4° C. for 30 minutes, after which the plates were centrifuged at 1000 rpm for 15 minutes at 4° C. From this, 125 μL of the aqueous solution was collected and plated into a 96 well plate. Microscint™ 40 [125 μL, Perkin-Elmer; containing a mixture of a polymer based on alkylphenolethoxylate (20-40%), diethanolamine-phosphoric acid ester ammonium salt (10-20%), sodium dioctyl sulphosuccinate (2.5-10%), triethyl phosphate (2.5-10%), 3,6-dimethyl-4-octyne-3,6-diol (≦2.5%), a polymer based on nonylphenolethoxylate (≦2.5%), diisopropyl naphthalene isomers (40-60%), 2,5-diphenyloxazole (≦2.5%), and 9,10-dimethylanthracene] was added and mixed well. After 30 minutes of incubation, the samples were analyzed with a MicroBeta® Trilux microplate liquid scintillation counter and luminometer (Perkin-Elmer).

The IC50 is the midpoint of a concentration-inhibition curve. High values mean a need for much substance, low ones inhibition by little substance. For `CCC(c1ccc(-c2cccc(OC)c2)cn1)n1ccnc1` (stereo not drawn) [Example 7, 2-(1-(1H-imidazol-1-yl)propyl)-5-(3-methoxyphenyl)pyridine], the IC50 is less than 50 nM. The figure for `CCC(c1ccc(-c2cccc(O)c2)cn1)n1ccnc1` (stereo not drawn) [Example 8, 3-(6-(1-(1H-imidazol-1-yl)propyl)pyridin-3-yl)phenol] is less than 50 nM. The value for `CC(c1ccc(-c2ccc(=O)n(C)c2)s1)n1ccnc1` (stereo not drawn) [Example 20, 5-(5-(1-(1H-imidazol-1-yl)ethyl)thiophen-2-yl)-1-methylpyridin-2(1H)-one] was 201 to 10000 nM; that for `COc1ccc(-c2ccc(C(C)(C)n3ccnc3)s2)cc1` [Example 24, 1-(2-(5-(4-methoxyphenyl)-thiophen-2-yl)-propan-2-yl)-1H-imidazole] was 50 to 200 nM; that for `CCC(c1ccc(-c2ccc(OC)cc2)o1)n1ccnc1` (stereo not drawn) [Example 27, 1-{1-[5-(4-Methoxy-phenyl)-furan-2-y]-propyl}-1H-imidazole] was less than 50 nM. For the compound `CC(c1cnc(-c2ccc(F)cc2F)s1)n1ccnc1` (stereo not drawn) [Example 28, 2-(2,4-Difluoro-phenyl)-5-(1-imidazol-1-yl-ethyl)-thiazole], the IC50 was 50 to 200 nM. `CCC(c1ccc(-c2ccc(O)cc2)o1)n1ccnc1` (stereo not drawn) [Example 30, 4-[5-(1-Imidazol-1-yl-propyl)-furan-2-yl]-phenol] yielded an IC50 of less than 50 nM. As for `CCC(c1cnc(-c2ccc(OC)cc2)s1)n1ccnc1` (stereo not drawn) [Example 35, 5-(1-Imidazol-1-yl-propyl)-2-(4-methoxy-phenyl)-thiazole], the IC50 was 201 to 10000 nM.

On to `CCC(c1ccc(-c2ccccc2O)cn1)n1ccnc1` (stereo not drawn) [Example 37, 2-[6-(1-Imidazol-1-yl-propyl)-pyridin-3-yl]-phenol], for which the IC50 is 50 to 200 nM. The figure for `CCC(c1cccc(-c2ccc(OC)cc2)n1)n1ccnc1` (stereo not drawn) [Example 38, 2-(1-Imidazol-1-yl-propyl)-6-(4-methoxy-phenyl) pyridine] is 201 to 10000 nM; for `CCC(c1ccc(-c2ccc(OC)cc2)cn1)n1ccnc1` (stereo not drawn) [Example 47, 2-(1-Imidazol-1-yl-propyl)-5-(4-methoxy-phenyl)-pyridine] it is 201 to 10000 nM; for `CC(c1ccc(-c2ccc(O)cc2)s1)n1ccnc1` (stereo not drawn) [Example 49, 4-[5-(1-Imidazol-1-yl-ethyl)-thiophen-2-yl]-phenol] it is 50 to 200 nM. The value for `CCC(c1ccc(-c2ccc(O)cc2)cn1)n1ccnc1` (stereo not drawn) [Example 50, 4-[6-(1-Imidazol-1-yl-propyl)-pyridin-3-yl]-phenol] was less than 50 nM. The figure for `CCC(c1ccc(-c2ccccc2OC)cn1)n1ccnc1` (stereo not drawn) [Example 56, 2-(1-Imidazol-1-yl-propyl)-5-(2-methoxy-phenyl)-pyridine] is 201 to 10000 nM. `CCC(c1cnc(-c2ccc(O)cc2)s1)n1ccnc1` (stereo not drawn) [Example 60, 4-[5-(1-Imidazol-1-yl-propyl)-thiazol-2-yl]-phenol] yielded an IC50 of 201 to 10000 nM.
